PMC11997890, “In Vivo and In Vitro Pharmacokinetic Studies of a Dual Topoisomerase I/II Inhibitor” (ACS Pharmacology & Translational Science, 2025)

Key:
[1] = tested on: OvCar8, A2780, Igrov-1 cells; test: Metabolism in ovarian cancer cell culture supernatants (HPLC); assay type: in vitro ADME, human; conditions: for total metabolism (sum of all detected metabolites as percentage of the substrate): supernatants of OvCar8, A2780, Igrov-1 after treatment
Method: After treatment, the supernatants of the cell cultures were collected in order to quantify metabolites by HPLC. In Figure 3 C, the total metabolism in % (as the sum of all detected metabolites as a percentage of the substrate) is shown in dependency of the respective treatment. Overall, P8-D6 is always the most metabolized substrate at ∼5%, followed by P8-D6 N-oxide at ∼2.6% and P8-D6 mono at ∼1%. […] In contrast to previous incubation with homogenized tissue (Figure ), P8-D6 was mostly metabolized to P8-DO (2.05%) and to a lesser extent to P8-D6 mono and P8-D6 N-oxide. P8-D6 mono was converted to P8-DO and less extensively metabolized to P8-D6 and a new unknown metabolite (0.10%). Due to the increased polarity and, therefore, decreased HPLC retention time, a nitrone would be thinkable. Such reactions have been described in the literature. − However, due to the very limited content of this metabolite, it could not be identified further. During incubation with P8-D6 N-oxide, P8-D6 features the major metabolite, while P8-D6 mono and P8-DO were formed to a lesser amount. The protein expression of Cyp3A4, mARC1 and 2, and FMO3 in the cell lines used was analyzed by Western blot (Figure 3 E).
The human ovarian cancer cell lines OvCar8, Igrov-1, and A2780, purchased from ATCC, were maintained in RPMI1640 medium, including L-glutamine supplemented with 10% fetal bovine serum and 60 IU/mL penicillin–streptomycin. Cells were grown at 37 °C and 5% CO2 in a humidified incubator and subcultivated at a confluency of 70–80%. Cell line authenticity was checked by STR profiling as described previously, and mycoplasma contamination was routinely investigated using MycoAlert (Lonza).

[2] = In vivo tissue distribution of P8-D6 and metabolites; parameters: species or system Sprague–Dawley rats
Method: Another part of this in vivo study was to identify in vivo metabolites and determine the tissue distribution of P8-D6 (study preparation scheme supplied as Figure S5). […] P8-D6 N-oxide reached c max/p.o. of 0.054 μM at 30 min, and all following results were below the limit of quantification (LoQ).
P8-D6 and P8-D6 mono each constituted about 20–30% of the detected derivatives. The extent of metabolism was, to a certain degree, organ-dependent (spleen > colon > lungs > kidney > liver). The highest concentration of P8-DO was found in the spleen at 8.7 nmol/g and the lowest in the liver at 4.5 nmol/g.
Effects of the diet were reduced by fasting the rats overnight prior to P8-D6 application. Blood samples were taken at 5, 15, 30, 60, 120, 180, 300, 360, and 600 min after i.v. application or 30, 60, 90, 120, 240, and 600 min after p.o. application. Immediately afterward, the plasma was collected by centrifugation at 2000 g for 10 min. The rats were housed in metabolic cages to collect the urine in specially attached containers. Urine and feces samples were collected every 2 h. The rats were euthanized by CO2 inhalation. The harvested organs (kidney, spleen, lung, liver, and colon) were weighed and submerged in liquid nitrogen. All collected samples were stored at −80 °C until analysis.
100 μL of each tissue homogenate/PNS was mixed with 200 μL of an ice-cold mixture of acetonitrile/methanol (2:1) and stirred in the vortex for 5 min. The suspension was centrifuged at 20000 g for 10 min, and 50 μL of the supernatant was injected into the HPLC. The samples from six mice per group were analyzed. Calibration/control samples were prepared the same way with organ samples collected from equal Sprague–Dawley rats from nonpharmacological studies prepared according to chapter Tissue/Enzymes. For calibration, the matrix was spiked with a defined concentration of the analyte. Final concentrations ranged from 0 to 10 nmol/g. Triple determinations were performed and prepared on each respective day. LoD: 0.81 nmol/g (spleen), 0.33 nmol/g (liver), 0.48 nmol/g (lungs), 1.14 nmol/g (colon), 0.38 nmol/g (kidney); LoQ: 2.69 nmol/g (spleen), 1.09 nmol/g (liver), 1.59 nmol/g (lungs), 3.80 nmol/g (colon), 1.28 nmol/g (kidney).

[3] = In vitro biotransformation of P8-D6 with pig liver fractions; assay type: in vitro ADME; conditions: for formation of metabolite from P8-D6: 1 mM P8-D6, 150 min
Method: P8-D6 (1 mM) was incubated with postnuclear supernatant (PNS), microsomes, or S9 reaction mixture of various tissue samples (liver, kidney, lung, spleen, and colon) from different donor species (pigs, mice, rats, and humans) for 150 min (study preparation scheme supplied as Figure S5). The commercial human and rat enzymes were subjected to quality control by the supplier. Three phase I metabolites were identified. […] LC-MS and NMR spectroscopic data for the metabolites are given in Supporting Information. Based on the structural characteristics, the metabolites were named as follows: P8-DO (4), P8-D6 N-oxide (6), and P8-D6 mono (8). All metabolites were synthesized to confirm the postulated structure (chapter Synthesis of Metabolites). The extent of metabolism during in vitro incubation was highly dependent on the species (pig > mouse > rat > human) (Figure ).
For all phase I metabolism studies (except cell cultures), a 0.3 mL reaction mixture consisting of 1 mM substrate (P8-D6, P8-D6 mono, P8-D6 N-oxide), 1 mM NADPH as a cofactor, 0.67 mg/mL protein from homogenized tissue or subcellular fractions, respectively (except recombinant enzymes, where 0.5 mg/mL was used), and PBS buffer (pH 7.4) was used. All experiments were performed in biological triplicates. The FDA Guidance for Industry highlights 7 CYP isoenzymes (1A2, 2B6, 2C8, 2C9, 2C19, 2D6, and 3A4/5) which routinely should be tested for metabolism during drug development. Table S1 presents an overview of the tissue material and species as well as the CYP enzymes used in this study. All reactions were carried out at 37 °C in a shaking water bath for 150 min before they were stopped with 0.3 mL of an ice-cold mixture of acetonitrile/methanol (1:1). The suspension was vortexed for 30 s and centrifuged at 15000 g for 5 min, and finally, 10 μL of the supernatant was injected into the HPLC. Control samples were prepared with buffer instead of either protein/tissue, cofactor, or substrate.

[4] = spleen, liver, lungs, kidney, colon after P8-D6

SMILES | total metabolism (sum of all detected metabolites as percentage of the substrate) [1] | proportion of all derivatives detected in tissue [2, 4] | formation of metabolite from P8-D6 ([3]; pig liver microsomes) | extent of formation lower than P8-D6 N-oxide ([3]; porcine liver microsomes) | formation of metabolite from P8-D6 ([3]; pig liver PNS) | formation of metabolite from P8-D6 ([3]; pig liver S9-fraction) | detection in tissue [2, 4] | metabolite formed from P8-D6 ([1]; OvCar8 supernatant) | concentration in tissue ([2]; liver (lowest)) | concentration in tissue ([2]; spleen (highest))
COc1cc(-c2cc3ccncc3c3nc(OCCN(C)C)c4cnccc4c23)cc(OC)c1OC [P8-D6, 6-(N,N-dimethyl-2-aminoethoxy)-11-(3,4,5-trimethoxyphenyl)-pyrido[3,4-c][1,9]-phenanthroline] | ~5% | 20–30% |  |  |  |  |  |  |  | 
CNCCOc1nc2c3cnccc3cc(-c3cc(OC)c(OC)c(OC)c3)c2c2ccncc12 [P8-D6 mono] | ~1% | 20–30% | 1.31% | 21.9 fold |  |  |  |  |  | 
COc1cc(-c2cc3ccncc3c3nc(OCC[N+](C)(C)[O-])c4cnccc4c23)cc(OC)c1OC [P8-D6 N-oxide] | ~2.6% |  | 28.67% |  | 6.88% | 7.58% | no P8-D6 N-oxide was observed at all |  |  | 
COc1cc(-c2cc3ccncc3c3[nH]c(=O)c4cnccc4c23)cc(OC)c1OC [P8-DO] |  | about 50% | 0.13% |  |  |  |  | 2.05% | 4.5 nmol/g | 8.7 nmol/g
